# Biological target: T1, human A1 adenosine receptor (Homo sapiens, UniProt P30542)
# T1 sequence (P30542 1-326): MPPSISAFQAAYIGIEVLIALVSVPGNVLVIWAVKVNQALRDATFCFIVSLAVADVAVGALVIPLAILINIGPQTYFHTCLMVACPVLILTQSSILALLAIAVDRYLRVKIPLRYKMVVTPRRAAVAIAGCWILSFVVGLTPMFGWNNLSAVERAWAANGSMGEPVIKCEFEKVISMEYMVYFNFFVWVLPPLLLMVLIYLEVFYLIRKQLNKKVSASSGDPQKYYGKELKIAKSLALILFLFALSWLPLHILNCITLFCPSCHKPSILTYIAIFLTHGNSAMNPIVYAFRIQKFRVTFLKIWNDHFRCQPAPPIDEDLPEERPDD
# Test: receptor binding, A1 adenosine receptor (analogously to Ensinger et al.)
# Details: Table Ia
# Description: The receptor binding values were determined analogously to Ensinger et al. in "Cloning and functional characterisation of human A1 adenosine receptor--Biochemical and Biophysical Communications, Vol 187, No. 2, 919-926, 1992".
row,Ki [nM],Compound
1,7.5,"CCCn1c(=O)c2[nH]c(C3CCCC3)nc2n(CCCC#N)c1=O [Example 01, 3-(3-cyanopropyl)-8-cyclopentyl-1-propylxanthine]"
2,8,"CCCn1c(=O)c2[nH]c(C3CCCC3)nc2n(CCCOC)c1=O [Example 04, 8-cyclopentyl-3-(3-methoxypropyl)-1-propylxanthine]"
3,46.7,"CCCn1c(=O)c2[nH]c(C3CCCC3)nc2n(CCO)c1=O [Example 05, 8-cyclopentyl-3-(2-hydroxyethyl)-1-propylxanthine]"
4,66.8,"CCCn1c(=O)c2[nH]c(C3CCCC3)nc2n(CCCO)c1=O [Example 06, 8-cyclopentyl-3-(3-hydroxypropyl)-1-propylxanthine]"
5,2.7,"CCCn1c(=O)c2[nH]c(C3CCCC3)nc2n(CCOC(C)=O)c1=O [Example 07, 8-cyclopentyl-3-(2-(methylcarbonyloxy)-ethyl)-1-propylxanthine]"
6,3.1,"CCCn1c(=O)c2[nH]c(C3CCCC3)nc2n(CCC(=O)OC)c1=O [Example 10, 8-cyclopentyl-3-(2-methoxycarbonylethyl)-1-propylxanthine]"
7,4,"CCCn1c(=O)c2[nH]c(C3CCCC3)nc2n(CCC(N)=O)c1=O [Example 11, 3-(2-carbamoylethyl)-8-cyclopentyl-1-propylxanthine]"
8,36.4,"CCCn1c(=O)c2[nH]c(C3CCCC3)nc2n(CCC(=O)N2CCOCC2)c1=O [Example 14, 8-cyclopentyl-3-(2-(N-morpholinocarbonyl)-ethyl)-1-propylxanthine]"
9,6.4,"CCCn1c(=O)c2[nH]c(C3CCCC3)nc2n(CCC(C)O)c1=O (stereo not shown) [Example 15, 8-cyclopentyl-3-(3-hydroxybutyl)-1-propylxanthine]"
10,3.8,"CCCn1c(=O)c2[nH]c(C3CCCC3)nc2n(CC=NO)c1=O [Example 17, 8-cyclopentyl-3-hydroximinoethyl-1-propylxanthine]"
11,11.5,"CCCn1c(=O)c2[nH]c(C3CCCC3)nc2n(CCCN2CCOCC2)c1=O [Example 19, 8-cyc lopentyl-3-(3-(N-morpholino)-propyl)-1-propylxanthine]"
12,1.7,"CCCn1c(=O)c2[nH]c(C3CCCC3)nc2n(CCc2ccc(O)cc2)c1=O [Example 24, 8-cyclopentyl-3-(2-(p-hydroxyphenyl)-ethyl)-1-propylxanthine]"
13,29.3,"CCCn1c(=O)c2[nH]c(C3CCCC3)nc2n(CCc2ccc(OC(C)=O)cc2)c1=O [Example 28, 8-cyclopentyl-3-(2-(p-(methylcarbonyloxy)-phenyl)-ethyl)-1-propylxanthine]"
14,9.1,"CCCn1c(=O)c2[nH]c(C3CCCC3)nc2n(CCCc2ccc(OCC(=O)OCC)cc2)c1=O [Example 31, 8-cyclopentyl-3-(3-(p-(ethoxycarbonylmethyloxy)-phenyl)-propyl)-1-propylxanthine]"
15,2.1,"CCCn1c(=O)c2[nH]c(C3CCCC3)nc2n(CCSCCO)c1=O [Example 47, 8-cyclopentyl-3-(2-(2-hydroxyethyl)-thioethyl)-1-propylxanthine]"
16,5,CCCn1c(=O)c2[nH]c(C3CCCC3)nc2n(CCCc2cccnc2)c1=O [Example 52]
17,2,CCCn1c(=O)c2[nH]c(C3CCCC3)nc2n(CCc2ccncc2)c1=O [Example 59]
18,3.8,"CCCn1c(=O)c2[nH]c(C3CCCC3)nc2n(CCCC(N)=O)c1=O [Example 60, 3-(3-(aminocarbonyl)-propyl)-8-cyclopentyl-1-propylxanthine]"
19,32.6,CCCn1c(=O)c2[nH]c(C3CCCC3)nc2n(CCN2CCSCC2)c1=O [Example 68]
20,6.2,"CCCn1c(=O)c2[nH]c(C3CCCC3)nc2n(CCS(=O)(=O)CCO)c1=O [Example 70, 8-cyclopentyl-3-(2-(2-hydroxyethyl)-sulphonylethyl)-1-propyl-xanthine]"

row,Compound,Ki [nM]
1,"CCCn1c(=O)c2[nH]c(C3CCCC3)nc2n(CCCOC(C)=O)c1=O [Example 08, 8-cyclopentyl-3-(3-acetoxypropyl)-1-propylxanthine]",3.5

# Tested on: CF PAC cells
# Test: efflux of chloride ions in CF PAC cells (preliminary investigations)
# Format: cell-based, human (patients suffering from cystic fibrosis)
# Details: activity of A1-antagonists in CF PAC cells
# Excerpt: Cystic fibrosis--also known as mucoviscidosis--is a hereditary disorder caused by a genetic defect on a certain chromosome. Only homozygotic carriers of the feature succumb to the disease. The genetic defects leads to the .dysfunction of exocrine glands. As a result of increased production and greater viscosity of the secretions of the mucous glands in the bronchi, severe complications may arise in the respiratory tract. Preliminary investigations have shown that A1 -antagonists increase the efflux of chloride ions, e.g..in CF PAC cells. The cells come from a pancreas adenocarcinoma cell line which was isolated from patients suffering from cystic fibrosis (CF).
row,Compound,blockade of the chloride efflux activity by agonists
1,Nc1nc(Cl)nc2c1ncn2[C@@H]1O[C@H](CO)[C@@H](O)[C@H]1O [2-chloroadenosine],successfully blocked

# From patent US5719279A, “Asymmetrically substituted xanthines” (Boehringer Ingelheim KG, priority 1992, dated 1998)
